Measured values: ChEMBL document CHEMBL4354883, “Design, Synthesis, and Biological Evaluation of HSP90 Inhibitor-SN38 Conjugates for Targeted Drug Accumulation” (J Med Chem, 2020)
The source made the active and inactive calls. The calls are words filed in the database; no cut-off is given here.

Columns and labels:
CAPAN-1 [1] = conditions: Homo sapiens, 28 mg/kg
Description: Antitumor activity against human Capan1 cells xenografted in mouse assessed as reduction in tumor weight at 28 mg/kg, iv for every 2 days and measured twice per week by caliper method

CAPAN-1 [2] = assay: Antiproliferative activity against human Capan1 cells assessed as reduction in cell viability after 72 hrs by SRB assay; format: functional, cell-based; conditions: CAPAN-1, 72 h
MIA PaCa-2 = assay: Antiproliferative activity against human MIAPaCa2 cells assessed as reduction in cell viability after 72 hrs by SRB assay; format: functional, cell-based; conditions: MIA PaCa-2, 72 h
A549 [3] = assay: Antiproliferative activity against human A549 cells assessed as reduction in cell viability after 72 hrs by SRB assay; format: functional, cell-based; conditions: A549, 72 h
Mus musculus [4] = organism: Mus musculus; conditions: 28 mg/kg
Description: In vivo inhibition of HSP90 in mouse xenografted with human Capan1 cells assessed as decrease in AKT protein expression at 28 mg/kg, iv for every 2 days measured at 2 hrs post last dose by Western blot analysis

L02 = assay: Cytotoxicity agains human HL7702 cells assessed as reduction in cell viability after 72 hrs by SRB assay; format: cell-based; conditions: L02, 72 h
HCT-116 [5] = conditions: Homo sapiens, 0.2 uM
Description: Downregulation of TOP1 expression in human HCT116 cells at 0.2 uM after 24 hrs by Western blot analysis

A549 [6] = conditions: Homo sapiens, 0.2 uM
Description: Downregulation of TOP1 expression in human A549 cells at 0.2 uM after 24 hrs by Western blot analysis

HCT-116 [7] = assay: Antiproliferative activity against human HCT116 cells assessed as reduction in cell viability after 72 hrs by SRB assay; format: functional, cell-based; conditions: HCT-116, 72 h
CAPAN-1 [8] = assay: Antitumor activity against human Capan1 cells xenografted in mouse assessed as reduction in tumor volume at 28 mg/kg, iv for every 2 days and measured twice per week by microcaliper method relative to control; format: functional
Mus musculus [9] = organism: Mus musculus; conditions: 28 mg/kg; remark: listed apart in the source
Description: In vivo inhibition of HSP90 in mouse xenografted with human Capan1 cells assessed as increase in HSP70 protein expression at 28 mg/kg, iv for every 2 days measured at 2 hrs post last dose by Western blot analysis

HCT-116 [10] = assay: Antitumor activity against human HCT116 cells xenografted in mouse assessed as reduction in tumor volume at 50 mg/kg, iv for 5 consecutive days per week and measured every 3 to 4 days up to 14 days by microcaliper analysis relative to control; format: functional
[11] = Half life in mouse plasma at 25 uM by HPLC analysis; format: ADME, cell-free
[12] = Half life of compound in PBS buffer at pH 7.4 at 50 uM by HPLC analysis; format: physicochemical
[13] = Half life in human plasma at 25 uM by HPLC analysis; format: ADME, cell-free
[14] = Half life of compound in PBS buffer at pH 6.0 at 50 uM by HPLC analysis; format: physicochemical
[15] = biological target: Heat shock protein HSP 90-alpha (Homo sapiens, UniProt P07900); assay: biochemical
Description: Inhibition of recombinant human full length HSP90 alpha expressed in Escherichia coli cells after 1 hr by fluorescence polarization assay

CCNC(=O)c1noc(-c2cc(C(C)C)c(O)cc2O)c1-c1ccc(CN2CCOCC2)cc1 [LUMINESPIB]
inhibition (CAPAN-1 [1]): Active
IC50 (CAPAN-1 [2]): 657 nM
IC50 (MIA PaCa-2): 38 nM
IC50 (A549 [3]): 39 nM
inhibition (Mus musculus [4]): Active
IC50 (L02): 1360 nM
inhibition (HCT-116 [5]): Active
inhibition (A549 [6]): Active
IC50 (HCT-116 [7]): 121 nM
T/C (CAPAN-1 [8]): 57.03%
inhibition (Mus musculus [9]): Active
T/C (HCT-116 [10]): 49.9%

CCc1c2c(nc3ccc(O)cc13)-c1cc3c(c(=O)n1C2)COC(=O)[C@@]3(CC)OC(=O)CCNC(=O)CNc1cc(-n2nc(C(F)(F)F)c3c2CC(C)(C)CC3=O)ccc1C(N)=O
half-life at 25 µM [11]: 17 h
half-life at 50 µM [12]: 12 h
half-life at 25 µM [13]: > 24 h
half-life at 50 µM [14]: > 24 h
IC50 [15]: 1700 nM
